Reference: patent US20170305943A1, “COMPOUNDS FOR THE TREATMENT OF BACTERIAL INFECTIONS” (priority 2014, published 2017)
Converted amounts (≈) assume the structure as drawn.

system: Clostridium difficile (Isolate ID ATCC 9689); assay: Bacterial Assay: Determination of Antibacterial Activity (MIC, broth microdilution or agar dilution); assay type: cell-based; conditions: Clostridioides difficile, ATCC9689, 48 h, read-out: C. difficile MIC Activity Range
Description: Bacterial Assay: Determination of Antibacterial Activity Compounds of the invention were tested for antimicrobial activity by susceptibility testing in liquid or on solid media. Minimum inhibitory concentrations (MICs) for compounds against each strain were determined by the broth microdilution or agar dilution method according to the guidelines of the Clinical Laboratories and Standards Institute, formerly the National Committee for Clinical Laboratory Standards (Clinical Laboratories and Standards Institute. Methods for Dilution Antimicrobial Susceptibility Tests for Bacteria That Grow Anaerobically; Approved Standard-Seventh Edition. Document M11-A7, CLSI, Wayne, Pa., 2007, Clinical Laboratories and Standards Institute). Briefly MICs were determined by visible inspection after 48 hours of growth in the presence of compounds, cultures were grown at 37° C. in anaerobic gas packs using reinforced clostridial medium supplemented with 0.1% defribrinated horse blood. The bacterial strains tested include C. difficile (Clostridium difficile (Isolate ID ATCC 9689)) (Table 2) and two drug resistant clinical isolates (Clostridium difficile (Isolate ID BI-9) and Clostridium difficile (Isolate ID 027-01) (Table 3).
MICs were determined to be within the activity ranges “A” activity≦1.01 μg/mL; “B” activity>1.0 μg/mL-4.0 μg/mL; “C” activity>4.0 μg/mL-16 μg/mL

SMILES | MIC [µg/mL]
NC(=O)c1c(F)ccc(OC(COC(=O)Cn2cccc2)c2nc(-c3ccc(C(F)(F)F)cc3)c(Br)o2)c1F (stereo not drawn) [Compound 40, 2-{5-bromo-4-[4-(trifluoromethyl)phenyl]-1,3-oxazol-2-yl}-2-(3-carbamoyl-2,4-difluorophenoxy)ethyl 1H-pyrrol-l-ylacetate] | < 1.01
NC(=O)c1c(F)ccc(O[C@@H](CO)c2nc(-c3ccc(C(F)(F)F)cc3)c(Br)o2)c1F [Compound 41, 3-[(1S)-1-{5-bromo-4-[4-(trifluoromethyl)phenyl]-1,3-oxazol-2-yl}-2-hydroxyethoxy]-2,6-difluorobenzamide] | 1 to 4 (≈ 1.97 to 7.89 µM)
NC(=O)c1c(F)ccc(OC(COC(=O)CCCN2C(=O)c3ccccc3C2=O)c2nc(-c3ccc(C(F)(F)F)cc3)c(Br)o2)c1F (stereo not drawn) [Compound 42, 2-{5-bromo-4-[4-(trifluoromethyl)phenyl]-1,3-oxazol-2-yl}-2-(3-carbamoyl-2,4-difluorophenoxy)ethyl 4-(1,3-dioxo-1,3-dihydro-2H-isoindo1-2-yl)butanoate] | < 1.01
NC(=O)c1c(F)ccc(OC(COP(=O)(O)O)c2nc(-c3ccc(C(F)(F)F)cc3)c(Br)o2)c1F (stereo not drawn) [Compound 43, 2-{5-bromo-4-[4-(trifluoromethyl)phenyl]-1,3-oxazol-2-yl}-2-(3-carbamoyl-2,4-difluorophenoxy)ethyl dihydrogen phosphate] | 1 to 4
CCOC(=O)COCC(Oc1ccc(F)c(C(N)=O)c1F)c1nc(-c2ccc(C(F)(F)F)cc2)c(Br)o1 (stereo not drawn) [Compound 44, ethyl [2-{5-bromo-4-[4-(trifluoromethyl)phenyl]-1,3-oxazol-2-yl}-2-(3-carbamoyl-2,4-difluorophenoxy)ethoxy]acetate] | 4 to 16 (≈ 6.74 to 27 µM)
CC(=O)OCCCC(Oc1ccc(F)c(C(N)=O)c1F)c1nc(-c2ccc(C(F)(F)F)cc2)c(Br)o1 (stereo not drawn) [Compound 45, 4-{5-bromo-4-[4-(trifluoromethyl)phenyl]-1,3-oxazol-2-yl}-4-(3-carbamoyl-2,4-difluorophenoxy)butyl acetate] | 1 to 4
NC(=O)c1c(F)ccc(OC(CCCO)c2nc(-c3ccc(C(F)(F)F)cc3)c(Br)o2)c1F (stereo not drawn) [Compound 46, 3-(1-{5-bromo-4-[4-(trifluoromethyl)phenyl]-1,3-oxazol-2-yl}-4-hydroxybutoxy)-2,6-difluorobenzamide] | 1 to 4 (≈ 1.87 to 7.47 µM)
CNC(=O)CCC(Oc1ccc(F)c(C(N)=O)c1F)c1nc(-c2ccc(C(F)(F)F)cc2)c(Br)o1 (stereo not drawn) [Compound 48, 3-[1-{5-bromo-4-[4-(trifluoromethyl)phenyl]-1,3-oxazol-2-yl}-4-(methylamino)-4-oxobutoxy]-2,6-difluorobenzamide] | 1 to 4 (≈ 1.78 to 7.11 µM)
CNC(=O)OCC(Oc1ccc(F)c(C(N)=O)c1F)c1nc(-c2ccc(C(F)(F)F)cc2)c(Br)o1 (stereo not drawn) [Compound 50, 2-{5-bromo-4-[4-(trifluoromethyl)phenyl]-1,3-oxazol-2-yl}-2-(3-carbamoyl-2,4-difluorophenoxy)ethyl methylcarbamate] | < 1.01
CC(=O)OCC(Oc1ccc(F)c(C(N)=O)c1F)c1nc(-c2ccc(OC(F)(F)F)cc2)c(Br)o1 (stereo not drawn) [Compound 51, 2-{5-bromo-4-[4-(trifluoromethoxy)phenyl]-1,3-oxazol-2-yl}-2-(3-carbamoyl-2,4-difluorophenoxy)ethyl acetate] | < 1.01
NC(=O)c1c(F)ccc(OC(CO)c2nc(-c3ccc(OC(F)(F)F)cc3)c(Br)o2)c1F (stereo not drawn) [Compound 52, 3-(1-{5-bromo-4-[4-(trifluoromethoxy)phenyl]-1,3-oxazol-2-yl}-2-hydroxyethoxy)-2,6-difluorobenzamide] | < 1.01
NC(=O)c1c(F)ccc(OC(CCC(O)CO)c2nc(-c3ccc(C(F)(F)F)cc3)c(Br)o2)c1F (stereo not drawn) [Compound 53, 3-[(1-{5-bromo-4-[4-(trifluoromethyl)phenyl]-1,3-oxazol-2-yl}-4,5-dihydroxypentyl)oxy]-2,6-difluorobenzamide] | 1 to 4 (≈ 1.77 to 7.08 µM)
COC(=O)CCNC(=O)OCC(Oc1ccc(F)c(C(N)=O)c1F)c1nc(-c2ccc(C(F)(F)F)cc2)c(Br)o1 (stereo not drawn) [Compound 54, methyl N-{[2-{5-bromo-4-[4-(trifluoromethyl)phenyl]-1,3-oxazol-2-yl}-2-(3-carbamoyl-2,4-difluorophenoxy)ethoxy]carbonyl}-beta-alaninate] | 1 to 4 (≈ 1.57 to 6.29 µM)
CC(C)(C)OC(=O)NCCNC(=O)OCC(Oc1ccc(F)c(C(N)=O)c1F)c1nc(-c2ccc(C(F)(F)F)cc2)c(Br)o1 (stereo not drawn) [Compound 55, 2-{5-bromo-4-[4-(trifluoromethyl)phenyl]-1,3-oxazol-2-yl}-2-(3-carbamoyl-2,4-difluorophenoxy)ethyl tert-butyl ethane-1,2-diylbiscarbamate] | 1 to 4 (≈ 1.44 to 5.77 µM)
CN(CCNC(=O)OCC(Oc1ccc(F)c(C(N)=O)c1F)c1nc(-c2ccc(C(F)(F)F)cc2)c(Br)o1)C(=O)OC(C)(C)C (stereo not drawn) [Compound 56, tert-butyl [2-({[2-{5-bromo-4-[4-(trifluoromethyl)phenyl]-1,3-oxazol-2-yl}-2-(3-carbamoyl-2,4-difluorophenoxy)ethoxy]carbonyl}amino)ethyl]methyl carbamate (non-preferred name)] | 1 to 4 (≈ 1.41 to 5.65 µM)
NC(=O)c1c(F)ccc(OC(COC(=O)N2CCOCC2)c2nc(-c3ccc(C(F)(F)F)cc3)c(Br)o2)c1F (stereo not drawn) [Compound 58, 2-{5-bromo-4-[4-(trifluoromethyl)phenyl]-1,3-oxazol-2-yl}-2-(3-carbamoyl-2,4-difluorophenoxy)ethyl morpholine-4-carboxylate] | 4 to 16 (≈ 6.45 to 25.8 µM)
NC(=O)c1c(F)ccc(OC(COC(=O)NCCO)c2nc(-c3ccc(C(F)(F)F)cc3)c(Br)o2)c1F (stereo not drawn) [Compound 59, 2-{5-bromo-4-[4-(trifluoromethyl)phenyl]-1,3-oxazol-2-yl}-2-(3-carbamoyl-2,4-difluorophenoxy)ethyl (2-hydroxyethyl)carbamate] | < 1.01
COCCNC(=O)OCC(Oc1ccc(F)c(C(N)=O)c1F)c1nc(-c2ccc(C(F)(F)F)cc2)c(Br)o1 (stereo not drawn) [Compound 60, 2-{5-bromo-4-[4-(trifluoromethyl)phenyl]-1,3-oxazol-2-yl}-2-(3-carbamoyl-2,4-difluorophenoxy)ethyl (2-methoxyethyl)carbamate] | < 1.01
NC(=O)c1c(F)ccc(OC(COC(=O)NCc2ccccn2)c2nc(-c3ccc(C(F)(F)F)cc3)c(Br)o2)c1F (stereo not drawn) [Compound 61, 2-{5-bromo-4-[4-(trifluoromethyl)phenyl]-1,3-oxazol-2-yl}-2-(3-carbamoyl-2,4-difluorophenoxy)ethyl (pyridin-2-ylmethyl)carbamate] | 1 to 4 (≈ 1.56 to 6.24 µM)
NC(=O)c1c(F)ccc(OC(COC(=O)NCc2cccnc2)c2nc(-c3ccc(C(F)(F)F)cc3)c(Br)o2)c1F (stereo not drawn) [Compound 62, 2-{5-bromo-4-[4-(trifluoromethyl)phenyl]-1,3-oxazol-2-yl}-2-(3-carbamoyl-2,4-difluorophenoxy)ethyl (pyridin-3-ylmethyl)carbamate] | 1 to 4 (≈ 1.56 to 6.24 µM)
NC(=O)c1c(F)ccc(OC(COC(=O)NCc2ccncc2)c2nc(-c3ccc(C(F)(F)F)cc3)c(Br)o2)c1F (stereo not drawn) [Compound 63, 2-{5-bromo-4-[4-(trifluoromethyl)phenyl]-1,3-oxazol-2-yl}-2-(3-carbamoyl-2,4-difluorophenoxy)ethyl (pyridin-4-ylmethyl)carbamate] | < 1.01
Cc1nnc(CNC(=O)OCC(Oc2ccc(F)c(C(N)=O)c2F)c2nc(-c3ccc(C(F)(F)F)cc3)c(Br)o2)o1 (stereo not drawn) [Compound 65, 2-{5-bromo-4-[4-(trifluoromethyl)phenyl]-1,3-oxazol-2-yl}-2-(3-carbamoyl-2,4-difluorophenoxy)ethyl [(5-methyl-1,3,4-oxadiazol-2-yl)methyl]carbamate] | 1 to 4 (≈ 1.55 to 6.19 µM)
NC(=O)c1c(F)ccc(OC(COC(=O)Nc2ccncc2)c2nc(-c3ccc(C(F)(F)F)cc3)c(Br)o2)c1F (stereo not drawn) [Compound 67, 2-{5-bromo-4-[4-(trifluoromethyl)phenyl]-1,3-oxazol-2-yl}-2-(3-carbamoyl-2,4-difluorophenoxy)ethyl pyridin-4-ylcarbamate] | 1 to 4 (≈ 1.59 to 6.38 µM)
Cc1noc(CNC(=O)OCC(Oc2ccc(F)c(C(N)=O)c2F)c2nc(-c3ccc(C(F)(F)F)cc3)c(Br)o2)n1 (stereo not drawn) [Compound 68, 2-{5-bromo-4-[4-(trifluoromethyl)phenyl]-1,3-oxazol-2-yl}-2-(3-carbamoyl-2,4-difluorophenoxy)ethyl [(3-methyl-1,2,4-oxadiazol-5-yl)methyl]carbamate] | 1 to 4 (≈ 1.55 to 6.19 µM)
CSc1oc(C(CO)Oc2ccc(F)c(C(N)=O)c2F)nc1-c1ccc(C(F)(F)F)cc1 (stereo not drawn) [Compound 69, 2,6-difluoro-3-(2-hydroxy-1-{5-(methylthio)-4-[4-(trifluoromethyl)phenyl]-1,3-oxazol-2-yl}ethoxy)benzamide] | < 1.01
NC(=O)c1c(F)ccc(O[C@H](COC(=O)CCC(=O)O)c2nc(-c3ccc(C(F)(F)F)cc3)c(Br)o2)c1F [Compound 70, 4-[(2R)-2-{5-bromo-4-[4-(trifluoromethyl)phenyl]-1,3-oxazol-2-yl}-2-(3-carbamoyl-2,4-difluorophenoxy)ethoxy]-4-oxobutanoic acid] | < 1.01
CN(Cc1ccncc1)C(=O)OCC(Oc1ccc(F)c(C(N)=O)c1F)c1nc(-c2ccc(C(F)(F)F)cc2)c(Br)o1 (stereo not drawn) [Compound 71, 2-{5-bromo-4-[4-(trifluoromethyl)phenyl]-1,3-oxazol-2-yl}-2-(3-carbamoyl-2,4-difluorophenoxy)ethyl methyl(pyridin-4-ylmethyl)carbamate] | 4 to 16 (≈ 6.1 to 24.4 µM)
